The test system of the assay is NCI-H1703 cells. The experiment in a line: Tritiated thymidine incorporation assay, NCI-H1703. The assay is classed as cell-based, Human. To be noted: NCI-H1703 (NSCLC; 6 copies/cell). The protocol:
To determine the impact of FGFR1-ECD.339-Fc on lung cancer cell lines in tissue culture, cells were plated in a Microtest™ 96-well tissue culture plate (Becton Dickenson, Franklin Lakes, N.J.) at a density of 5×10^3 cells/well in medium containing 10%, 1% or 0.1% FBS in the presence or absence of 15 μg/ml FGFR1-ECD.339-Fc (SEQ ID NO: 6) or an unrelated ECD-Fc fusion protein (as a negative control). Plates were incubated at 37° C. at 5% CO2 for 4 days and then assayed to determine the impact of FGFR1-ECD.339-Fc on cell number and proliferation.
To determine the impact of FGFR1-ECD.339-Fc on cell proliferation the tritiated thymidine ([3H]-TdR) incorporation assay was employed. Following incubation of lung cancer cell lines with FGFR1-ECD.339-Fc or an unrelated ECD-Fc negative control, tritiated thymidine ([3H]-TdR; PerkinElmer, Boston, Mass.) was added at activity of 1 μCi/well. After 16-h exposure, tritiated thymidine incorporation was assessed. Cells were washed with Dulbecco's phosphate-buffered saline (DPBS; Mediatech, Inc.) and removed from cell culture surface by incubation with trypsin-EDTA (Mediatech, Inc.). […] Thymidine incorporation was determined as counts per minute (cpm) on a Topcount NXT (PerkinElmer) scintillation counter. Results were expressed as cpm/well. […]
In general terms: Uptake of a labelled nucleoside into DNA is a usual measure of proliferation.

As to “FGFR1-ECD.339-Fc: FGFR1 ECD fusion molecule: human FGFR1 extracellular domain ending at amino acid 339 fused to an Fc; SEQ ID NO: 6 (mature form)”, the “reduction of cell proliferation (tritiated thymidine incorporation)” value came out at 15%.

The values above are taken from patent US20130136740A1, “METHODS OF TREATING CANCER” (priority 2011, published 2013).
